Our source for the % of control and % of inhibition values is ChEMBL document CHEMBL5465560, “Selectivity Literature for EUbOPEN Chemogenomic Library” (2024).

In test [1] the target is Tyrosine-protein kinase Lyn (Homo sapiens, UniProt P07948). The test can be described thus: Selectivity interaction (KinomeScan (DiscoverX)) EUB0001049a LYN. The conditions noted are these: at 1 µM.
Test [2] deals with Cyclin-dependent kinase 14 (Homo sapiens) (UniProt O94921). The test can be described thus: Selectivity interaction (KinomeScan (DiscoverX)) EUB0000666a CDK14. The following applies: at 10 µM.
For test [3], the target named is T1, Protein kinase C epsilon type (Homo sapiens) (UniProt Q02156).
T1 sequence (whole entry): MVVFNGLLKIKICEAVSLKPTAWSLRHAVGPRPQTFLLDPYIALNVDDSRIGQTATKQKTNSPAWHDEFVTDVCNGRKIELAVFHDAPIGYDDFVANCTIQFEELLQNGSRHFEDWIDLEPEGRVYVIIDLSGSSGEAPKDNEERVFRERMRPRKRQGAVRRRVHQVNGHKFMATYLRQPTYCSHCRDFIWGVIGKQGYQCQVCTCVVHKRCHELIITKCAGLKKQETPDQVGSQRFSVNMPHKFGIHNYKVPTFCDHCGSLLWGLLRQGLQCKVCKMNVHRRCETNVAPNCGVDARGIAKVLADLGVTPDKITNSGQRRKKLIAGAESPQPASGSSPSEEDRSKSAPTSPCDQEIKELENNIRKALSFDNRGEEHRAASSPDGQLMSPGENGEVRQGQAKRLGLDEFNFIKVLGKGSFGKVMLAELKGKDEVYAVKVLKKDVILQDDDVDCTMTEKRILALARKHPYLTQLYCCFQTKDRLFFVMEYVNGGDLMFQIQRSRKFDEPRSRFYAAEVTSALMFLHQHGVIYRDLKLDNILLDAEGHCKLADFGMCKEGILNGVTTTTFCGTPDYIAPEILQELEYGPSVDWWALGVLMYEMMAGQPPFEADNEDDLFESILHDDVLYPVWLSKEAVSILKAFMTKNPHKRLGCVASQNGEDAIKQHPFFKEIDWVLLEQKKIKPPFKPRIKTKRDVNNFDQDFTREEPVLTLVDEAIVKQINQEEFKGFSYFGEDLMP
The test can be described thus: Selectivity interaction (SelectScreen profiling (Invitrogen)) EUB0000607a PRKCE. The conditions noted are these: at 2 µM.

The target of test [4] is T2, Bone morphogenetic protein receptor type-2 (Homo sapiens) (UniProt Q13873).
T2 sequence (whole entry): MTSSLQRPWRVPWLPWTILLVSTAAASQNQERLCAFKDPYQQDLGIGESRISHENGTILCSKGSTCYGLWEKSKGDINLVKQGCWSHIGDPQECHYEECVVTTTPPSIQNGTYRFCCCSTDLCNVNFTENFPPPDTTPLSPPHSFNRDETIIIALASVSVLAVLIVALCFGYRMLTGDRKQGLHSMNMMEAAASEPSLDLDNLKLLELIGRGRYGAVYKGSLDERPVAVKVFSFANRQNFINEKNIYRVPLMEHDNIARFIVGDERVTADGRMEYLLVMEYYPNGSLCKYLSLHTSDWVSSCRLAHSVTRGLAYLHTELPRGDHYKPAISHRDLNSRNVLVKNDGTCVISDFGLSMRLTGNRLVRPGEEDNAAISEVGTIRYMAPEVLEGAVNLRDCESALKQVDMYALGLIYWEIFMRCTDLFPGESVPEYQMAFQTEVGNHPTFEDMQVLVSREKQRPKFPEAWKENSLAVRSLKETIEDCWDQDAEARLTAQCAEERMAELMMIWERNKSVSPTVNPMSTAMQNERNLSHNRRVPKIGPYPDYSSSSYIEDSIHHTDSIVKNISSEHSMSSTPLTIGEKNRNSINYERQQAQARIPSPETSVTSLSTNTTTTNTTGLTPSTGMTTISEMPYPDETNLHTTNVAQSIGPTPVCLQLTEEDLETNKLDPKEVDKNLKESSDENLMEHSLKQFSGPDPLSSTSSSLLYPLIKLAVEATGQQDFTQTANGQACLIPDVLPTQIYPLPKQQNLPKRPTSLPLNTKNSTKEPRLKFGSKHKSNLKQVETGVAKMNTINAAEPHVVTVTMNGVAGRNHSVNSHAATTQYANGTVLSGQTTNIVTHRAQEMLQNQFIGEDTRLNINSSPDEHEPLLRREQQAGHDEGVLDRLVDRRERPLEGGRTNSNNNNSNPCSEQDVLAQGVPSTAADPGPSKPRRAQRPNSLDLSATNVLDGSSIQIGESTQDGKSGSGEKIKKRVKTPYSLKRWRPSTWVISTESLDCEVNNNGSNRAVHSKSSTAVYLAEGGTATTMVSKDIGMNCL
The test can be described thus: Selectivity interaction (KinomeScan (DiscoverX)) EUB0001619a BMPR2. The following applies: at 1 µM.

Chain of Tyrosine-protein kinase Lyn (P07948 2-512 limits assumed): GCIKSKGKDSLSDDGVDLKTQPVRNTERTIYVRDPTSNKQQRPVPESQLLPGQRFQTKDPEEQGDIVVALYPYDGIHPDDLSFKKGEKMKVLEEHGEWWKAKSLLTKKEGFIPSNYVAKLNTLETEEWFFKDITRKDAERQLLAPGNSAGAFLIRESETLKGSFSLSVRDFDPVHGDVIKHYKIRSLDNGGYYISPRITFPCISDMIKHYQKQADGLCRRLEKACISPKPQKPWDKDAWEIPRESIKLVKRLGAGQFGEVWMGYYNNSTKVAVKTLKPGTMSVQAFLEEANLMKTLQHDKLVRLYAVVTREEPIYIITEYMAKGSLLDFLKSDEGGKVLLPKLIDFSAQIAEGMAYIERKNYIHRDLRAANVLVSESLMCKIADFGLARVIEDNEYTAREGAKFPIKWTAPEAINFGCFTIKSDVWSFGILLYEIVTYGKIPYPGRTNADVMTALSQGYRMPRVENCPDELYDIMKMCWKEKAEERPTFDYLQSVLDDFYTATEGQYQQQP
Chain of Cyclin-dependent kinase 14 (Homo sapiens) (O94921 whole entry): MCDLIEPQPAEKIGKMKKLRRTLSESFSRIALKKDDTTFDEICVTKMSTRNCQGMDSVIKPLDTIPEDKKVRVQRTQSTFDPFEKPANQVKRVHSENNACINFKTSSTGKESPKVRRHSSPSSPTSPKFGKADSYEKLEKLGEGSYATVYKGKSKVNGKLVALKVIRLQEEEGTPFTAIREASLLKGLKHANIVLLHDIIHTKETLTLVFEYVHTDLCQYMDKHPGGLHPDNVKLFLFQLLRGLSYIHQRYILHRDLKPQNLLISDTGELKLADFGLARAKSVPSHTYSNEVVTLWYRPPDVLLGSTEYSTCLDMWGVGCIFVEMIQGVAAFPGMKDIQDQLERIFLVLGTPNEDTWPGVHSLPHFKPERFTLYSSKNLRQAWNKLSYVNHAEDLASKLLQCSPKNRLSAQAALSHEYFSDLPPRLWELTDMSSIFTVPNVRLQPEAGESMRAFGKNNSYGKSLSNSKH

In turn, `COc1cc(Nc2nc(C)cc(-c3cnn4nc(OC)ccc34)n2)cc(C(F)(F)F)c1` had a % of control in test [1] of 89%.
As to `O=C(NOC[C@H](O)CO)c1ccc(F)c(F)c1Nc1ccc(I)cc1F`, the % of control in test [2] stood at 100%.
For `CNC(=O)Nc1ccc(-c2nc(N3CC4CCC(C3)O4)c3cnn(C4CCC5(CC4)OCCO5)c3n2)cc1`, the % of inhibition in test [3] stood at 15%.
With `N#Cc1cccc(-c2c[nH]c3ncnc(N4CCOCC4)c23)c1`, the % of control in test [4] was determined as 80%.
